Results from ChEMBL document CHEMBL4627399, “Synthesis and Structure-Activity Relationships of 5'-Aryl-14-alkoxypyridomorphinans: Identification of a μ Opioid Receptor Agonist/δ Opioid Receptor Antagonist Ligand with Systemic Antinociceptive Activity and Diminished Opioid Side Effects” (J Med Chem, 2020).
The source made the active and inactive calls. The rule behind the calls is not given here.

Legend:
[1] = molecular target: T1, Kappa-type opioid receptor (Homo sapiens, UniProt P41145); test: Displacement of [3H]-diprenorphine from human kappa opioid receptor expressed in CHO cell membranes incubated for 1 hr by competition radioligand binding assay
[2] = molecular target: T2, Delta-type opioid receptor (Homo sapiens, UniProt P41143); test: Displacement of [3H]-diprenorphine from human delta opioid receptor expressed in CHO cell membranes incubated for 1 hr by competition radioligand binding assay
[3] = molecular target: T1, Kappa-type opioid receptor; test: Agonist activity at human kappa opioid receptor expressed in CHO cell membranes assessed as stimulation of [35S]GTPgammaS binding incubated for 1 hr relative to […]; assay type: functional
[4] = molecular target: T2, Delta-type opioid receptor; test: Antagonist activity at human delta opioid receptor expressed in CHO cell membranes assessed as reduction in SNC80-induced [35S]GTPgammaS binding preincubated for 5 mins followed by SNC80 addition and measured after 1 hr; assay type: functional
[5] = Stability in human liver microsomes at 1 uM measured up to 60 mins by LC-MS/MS analysis; assay type: ADME, Microsome; conditions: 1 h
Mu-type opioid receptor [6] = molecular target: T3, Mu-type opioid receptor (Homo sapiens, UniProt P35372); test: biochemical
[7] = molecular target: T1, Kappa-type opioid receptor; test: Agonist activity at human kappa opioid receptor expressed in CHO cell membranes incubated for 1 hr by [35S]GTPgammaS binding assay; assay type: functional
Mu-type opioid receptor [8] = molecular target: T3, Mu-type opioid receptor; test: biochemical; assay type: cell-based, CHO

## Oc1ccc2c3c1O[C@H]1c4ncc(-c5cn[nH]c5)cc4C[C@@]4(OCCCc5ccccc5)[C@@H](C2)N(CC2CC2)CC[C@]314
[1]
  Ki: 29.8 nM
[2]
  Ki: 257 nM
[3]
  Emax: inactive
[4]
  IC50: 0.62 nM
[5]
  Stability: Stable
Mu-type opioid receptor [6]
  EC50: 3.29 nM
[7]; cho
  EC50: Not Active
Mu-type opioid receptor [8]
  Ki: 121 nM

## COc1ccc(-c2cnc3c(c2)C[C@@]2(OCCCc4ccccc4)[C@H]4Cc5ccc(O)c6c5[C@@]2(CCN4CC2CC2)[C@H]3O6)cc1
[1]
  Ki: 140 nM
[2]
  Ki: 30.6 nM
[4]
  IC50: 22 nM
[5]
  Stability: Stable
[7]; read-out: EC50
  EC50: 2.02 nM

## CC(=O)Nc1cccc(-c2cnc3c(c2)C[C@@]2(OCCCc4ccccc4)[C@H]4Cc5ccc(O)c6c5[C@@]2(CCN4CC2CC2)[C@H]3O6)c1
[1]
  Ki: 608 nM
[2]
  Ki: > 3330 nM
[5]
  Stability: Stable
Mu-type opioid receptor [8]
  Ki: 337 nM

## Oc1ccc2c3c1O[C@H]1c4ncc(-c5cccnc5)cc4C[C@@]4(OCCCc5ccccc5)[C@@H](C2)N(CC2CC2)CC[C@]314
[1]
  Ki: 27.8 nM
[2]
  Ki: 30.6 nM
[3]
  Emax: inactive
[4]
  IC50: 0.67 nM
[5]
  Stability: Stable
Mu-type opioid receptor [6]
  EC50: > 3330 nM
[7]; cho
  EC50: Not Active
Mu-type opioid receptor [8]
  Ki: 82.7 nM

## Oc1ccc2c3c1O[C@H]1c4ncc(-c5ccc(F)c(F)c5)cc4C[C@@]4(OCCCc5ccccc5)[C@@H](C2)N(CC2CC2)CC[C@]314
[1]
  Ki: 71.2 nM
[2]
  Ki: 7.52 nM
[5]
  Stability: Stable
Mu-type opioid receptor [8]
  Ki: 370 nM

## Oc1ccc2c3c1O[C@H]1c4ncc(-c5ccc(F)cc5F)cc4C[C@@]4(OCCCc5ccccc5)[C@@H](C2)N(CC2CC2)CC[C@]314
[1]
  Ki: 35.9 nM
[2]
  Ki: 53.7 nM
[4]
  IC50: 3.2 nM
[5]
  Stability: Stable
Mu-type opioid receptor [6]
  EC50: 130 nM
Mu-type opioid receptor [8]
  Ki: 171 nM

## Cc1cc(F)ccc1-c1cnc2c(c1)C[C@@]1(OCCCc3ccccc3)[C@H]3Cc4ccc(O)c5c4[C@@]1(CCN3CC1CC1)[C@H]2O5
[1]
  Ki: 129 nM
[2]
  Ki: 3.78 nM
[3]
  Emax: inactive
[4]
  IC50: 28.2 nM
[5]
  Stability: Stable
[7]; cho
  EC50: Not Active

## Oc1ccc2c3c1O[C@H]1c4ncc(-c5ccccc5)cc4C[C@@]4(OCCCC5CCOCC5)[C@@H](C2)N(CC2CC2)CC[C@]314
[1]
  Ki: 24.8 nM
[2]
  Ki: 64.5 nM
[4]
  IC50: < 0.17 nM
[5]
  Stability: Stable

## Oc1ccc2c3c1O[C@H]1c4ncc(-c5ccccn5)cc4C[C@@]4(OCCCc5ccccc5)[C@@H](C2)N(CC2CC2)CC[C@]314
[1]
  Ki: 19.2 nM
[2]
  Ki: 6.52 nM
[4]
  IC50: 0.51 nM
[5]
  Stability: Stable
Mu-type opioid receptor [6]
  EC50: 526 nM
Mu-type opioid receptor [8]
  Ki: 105 nM

## CN(C)Cc1ccccc1-c1cnc2c(c1)C[C@@]1(OCCCc3ccccc3)[C@H]3Cc4ccc(O)c5c4[C@@]1(CCN3CC1CC1)[C@H]2O5
[1]
  Ki: 22.7 nM
[2]
  Ki: 14 nM
[3]
  Emax: inactive
[4]
  IC50: 11.7 nM
[5]
  Stability: Stable
Mu-type opioid receptor [6]
  EC50: 28.9 nM
[7]; cho
  EC50: Not Active
Mu-type opioid receptor [8]
  Ki: 56.4 nM

## Oc1cccc(-c2cnc3c(c2)C[C@@]2(OCCCc4ccccc4)[C@H]4Cc5ccc(O)c6c5[C@@]2(CCN4CC2CC2)[C@H]3O6)c1
[1]
  Ki: 18.1 nM
[2]
  Ki: 8.37 nM
[4]
  IC50: 1.28 nM
[5]
  Stability: Stable
Mu-type opioid receptor [6]
  EC50: 1.12 nM
Mu-type opioid receptor [8]
  Ki: 12.9 nM

## COc1ccccc1-c1cnc2c(c1)C[C@@]1(OCCCc3ccccc3)[C@H]3Cc4ccc(O)c5c4[C@@]1(CCN3CC1CC1)[C@H]2O5
[1]
  Ki: 126 nM
[2]
  Ki: 29.7 nM
[3]
  Emax: inactive
[4]
  IC50: 0.79 nM
[5]
  Stability: Stable
Mu-type opioid receptor [6]
  EC50: 7.18 nM
[7]; cho
  EC50: Not Active
Mu-type opioid receptor [8]
  Ki: 61.9 nM

## Cc1cc(-c2cnc3c(c2)C[C@@]2(OCCCc4ccccc4)[C@H]4Cc5ccc(O)c6c5[C@@]2(CCN4CC2CC2)[C@H]3O6)ccn1
[1]
  Ki: < 0.51 nM
[2]
  Ki: 63.5 nM
[3]
  Emax: inactive
[4]
  IC50: 0.39 nM
[5]
  Stability: Stable
Mu-type opioid receptor [6]
  EC50: 1.88 nM
[7]; cho
  EC50: Not Active
Mu-type opioid receptor [8]
  Ki: 1.05 nM

## CC(=O)Nc1ccc(-c2cnc3c(c2)C[C@@]2(OCCCc4ccccc4)[C@H]4Cc5ccc(O)c6c5[C@@]2(CCN4CC2CC2)[C@H]3O6)cc1
[1]
  Ki: 15.1 nM
[2]
  Ki: 394 nM
[5]
  Stability: Stable
Mu-type opioid receptor [8]
  Ki: 159 nM

## Oc1ccc2c3c1O[C@H]1c4ncc(-c5ccccc5)cc4C[C@@]4(OCCCC5CCCCC5)[C@@H](C2)N(CC2CC2)CC[C@]314
[1]
  Ki: 57.9 nM
[2]
  Ki: 12.9 nM
[4]
  IC50: 28.7 nM
[5]
  Stability: Stable
Mu-type opioid receptor [6]
  EC50: 23.6 nM
[7]; read-out: EC50
  EC50: 34.5 nM
Mu-type opioid receptor [8]
  Ki: 95.3 nM
